ChEMBL document CHEMBL1132550, “Modeling of amino-terminal domains of group I metabotropic glutamate receptors: structural motifs affecting ligand selectivity” (J Med Chem, 1999)

Columns and labels:
[1] = target: Metabotropic glutamate receptor 5 (Homo sapiens, UniProt P41594); test: Compound was tested for it's […] activity against Ser152 and Thr175 (Metabotropic glutamate receptor 5); format: functional
[2] = target: Metabotropic glutamate receptor 1 (Homo sapiens, UniProt Q13255); test: Compound was tested for its […] activity against Ser165 and Thr188 (Metabotropic glutamate receptor 1) receptor.; format: functional
Sequence of Metabotropic glutamate receptor 1 (Q13255 whole entry): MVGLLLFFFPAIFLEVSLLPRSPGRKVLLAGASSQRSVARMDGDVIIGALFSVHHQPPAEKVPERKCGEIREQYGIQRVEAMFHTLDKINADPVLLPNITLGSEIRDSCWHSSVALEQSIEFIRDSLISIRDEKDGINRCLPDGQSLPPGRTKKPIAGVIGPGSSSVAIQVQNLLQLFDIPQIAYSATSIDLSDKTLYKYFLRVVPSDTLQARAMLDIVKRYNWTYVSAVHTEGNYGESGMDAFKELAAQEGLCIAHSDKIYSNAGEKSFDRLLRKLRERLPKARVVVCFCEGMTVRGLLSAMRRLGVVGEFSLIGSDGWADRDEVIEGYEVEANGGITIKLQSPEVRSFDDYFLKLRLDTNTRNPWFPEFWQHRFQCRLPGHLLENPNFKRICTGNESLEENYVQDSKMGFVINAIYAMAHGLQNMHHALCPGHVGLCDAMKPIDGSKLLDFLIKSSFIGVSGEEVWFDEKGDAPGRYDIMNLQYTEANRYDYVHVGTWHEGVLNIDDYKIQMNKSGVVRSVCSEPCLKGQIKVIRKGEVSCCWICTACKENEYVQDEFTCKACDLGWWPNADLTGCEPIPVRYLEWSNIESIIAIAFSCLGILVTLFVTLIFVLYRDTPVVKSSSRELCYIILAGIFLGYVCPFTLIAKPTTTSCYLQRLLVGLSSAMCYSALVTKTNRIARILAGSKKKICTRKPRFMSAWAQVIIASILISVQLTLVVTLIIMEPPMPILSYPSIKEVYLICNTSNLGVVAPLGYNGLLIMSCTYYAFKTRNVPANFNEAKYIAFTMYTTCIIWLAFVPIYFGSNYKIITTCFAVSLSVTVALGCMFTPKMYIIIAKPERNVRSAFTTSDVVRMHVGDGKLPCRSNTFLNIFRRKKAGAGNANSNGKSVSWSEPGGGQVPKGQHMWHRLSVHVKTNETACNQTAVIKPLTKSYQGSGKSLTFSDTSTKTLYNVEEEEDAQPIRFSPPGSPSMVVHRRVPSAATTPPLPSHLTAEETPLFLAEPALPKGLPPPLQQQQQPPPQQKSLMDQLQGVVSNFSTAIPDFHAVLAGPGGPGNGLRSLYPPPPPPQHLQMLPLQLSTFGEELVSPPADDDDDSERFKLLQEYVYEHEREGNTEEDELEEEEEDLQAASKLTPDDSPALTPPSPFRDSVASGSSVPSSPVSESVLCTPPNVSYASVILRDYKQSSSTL

Sequence of Metabotropic glutamate receptor 5 (P41594 whole entry): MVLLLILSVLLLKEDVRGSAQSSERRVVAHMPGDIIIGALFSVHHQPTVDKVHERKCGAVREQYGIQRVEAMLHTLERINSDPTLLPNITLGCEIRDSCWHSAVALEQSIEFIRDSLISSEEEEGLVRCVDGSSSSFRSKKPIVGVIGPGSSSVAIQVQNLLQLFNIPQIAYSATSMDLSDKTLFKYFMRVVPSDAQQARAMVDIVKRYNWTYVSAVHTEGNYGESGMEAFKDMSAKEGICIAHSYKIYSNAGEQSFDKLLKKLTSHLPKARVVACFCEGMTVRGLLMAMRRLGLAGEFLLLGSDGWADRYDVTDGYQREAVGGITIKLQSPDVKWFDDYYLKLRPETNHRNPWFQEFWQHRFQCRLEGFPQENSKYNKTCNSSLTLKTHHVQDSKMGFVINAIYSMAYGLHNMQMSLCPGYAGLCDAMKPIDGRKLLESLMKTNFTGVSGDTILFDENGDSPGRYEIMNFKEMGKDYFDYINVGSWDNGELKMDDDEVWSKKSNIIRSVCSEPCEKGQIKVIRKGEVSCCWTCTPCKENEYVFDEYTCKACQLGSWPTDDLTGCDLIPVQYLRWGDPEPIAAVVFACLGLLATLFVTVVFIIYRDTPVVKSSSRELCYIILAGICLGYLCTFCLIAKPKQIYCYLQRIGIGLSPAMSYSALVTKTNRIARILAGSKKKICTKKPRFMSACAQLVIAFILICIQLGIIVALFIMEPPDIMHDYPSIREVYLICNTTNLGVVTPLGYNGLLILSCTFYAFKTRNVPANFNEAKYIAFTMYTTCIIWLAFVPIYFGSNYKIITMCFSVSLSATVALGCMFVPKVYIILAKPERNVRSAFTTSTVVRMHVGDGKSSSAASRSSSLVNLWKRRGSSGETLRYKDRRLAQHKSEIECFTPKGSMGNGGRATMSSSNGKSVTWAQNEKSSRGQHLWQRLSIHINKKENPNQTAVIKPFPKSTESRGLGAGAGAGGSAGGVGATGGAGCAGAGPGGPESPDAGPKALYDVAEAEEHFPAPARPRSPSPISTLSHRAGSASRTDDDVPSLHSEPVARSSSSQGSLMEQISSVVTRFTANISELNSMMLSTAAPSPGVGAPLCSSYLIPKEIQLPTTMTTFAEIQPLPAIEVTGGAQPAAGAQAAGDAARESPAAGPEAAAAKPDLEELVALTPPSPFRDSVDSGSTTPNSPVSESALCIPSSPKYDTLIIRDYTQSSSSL

Compound | EC50 [1] [µM] | IC50 [1] [µM] | IC50 [2] [µM] | EC50 [2] [µM]
NC(C(=O)O)C12CC(C(=O)O)(C1)C2 (stereo not given) | 103 |  |  | 
NC(C(=O)O)c1cc(O)ccc1Cl (stereo not given) | 750 |  |  | 
N[C@]1(C(=O)O)CCc2cc(C(=O)O)ccc21 |  | > 1000 | 214 | 
N[C@H](C(=O)O)c1cc(O)cc(O)c1 |  |  |  | 6.6
Cc1ccc(O)c(/N=N/c2ccccc2)n1 |  | 0.37 | > 100 | 
Cc1cccc(/C=C/c2ccccc2)n1 |  | 0.29 | > 100 | 
Cc1cc(C(=O)O)ccc1[C@H](N)C(=O)O |  | > 100 |  | 
